These results are taken from patent publication US4711245A, “Sensor for components of a liquid mixture” (Genetics International, Inc., priority 1983, dated 1987).

A short description of data set [1]: dc cyclic voltammetry of ferrocene derivatives (redox potential). The format is physicochemical. Particulars: for Eo: vs a standard calomel electrode, phosphate buffer at pH 7.0.
Data set [2] deals with T1, glucose oxidase (Aspergillus niger, UniProt P13006). Briefly: substrate kinetics of glucose oxidase (relative rate, Km). The format is biochemical. Particulars: substrates for glucose oxidase; β-D-glucose 100.
T1 sequence (P13006 23-605): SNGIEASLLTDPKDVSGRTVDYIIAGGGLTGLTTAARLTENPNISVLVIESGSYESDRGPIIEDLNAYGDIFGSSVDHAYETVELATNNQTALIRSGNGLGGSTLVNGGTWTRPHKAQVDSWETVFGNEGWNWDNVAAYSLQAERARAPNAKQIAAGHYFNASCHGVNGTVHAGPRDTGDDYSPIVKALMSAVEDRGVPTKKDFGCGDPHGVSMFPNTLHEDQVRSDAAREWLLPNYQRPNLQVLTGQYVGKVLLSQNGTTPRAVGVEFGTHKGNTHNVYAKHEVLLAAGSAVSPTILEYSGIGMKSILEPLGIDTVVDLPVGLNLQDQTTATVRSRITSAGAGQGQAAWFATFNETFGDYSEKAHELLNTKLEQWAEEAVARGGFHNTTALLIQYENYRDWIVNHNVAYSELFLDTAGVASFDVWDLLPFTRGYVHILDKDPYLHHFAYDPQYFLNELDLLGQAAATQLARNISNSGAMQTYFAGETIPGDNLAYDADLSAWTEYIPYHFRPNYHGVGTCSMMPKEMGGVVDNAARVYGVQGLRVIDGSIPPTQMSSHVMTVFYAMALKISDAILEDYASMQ
Data set [3] in a line: spectrophotometric measurement (E, cm^-1 M^-1). The format is physicochemical.
Procedure: All optical spectra were recorded with a Pye-Unicam SP8 200 spectrophotometer with the sample and reference solutions in matched quartz micro-cuvettes of path length 1 cm.
The target in data set [4] is T2, glucose enzyme electrode (glucose oxidase) (Aspergillus niger, UniProt P13006).
T2 construct: purchased Boehringer Mannheim
T2 sequence (P13006 23-605 limits assumed): as the sequence (P13006 23-605) above
Briefly: steady-state current response of the 1,1'-dimethylferrocene/glucose oxidase enzyme electrode (interfering substances, KM'). As to conditions: for interference to the electrodes response to glucose: added at normal blood concentration.

Data set [5] addresses T1, glucose oxidase. As to conditions: non-immobilized enzyme; cited from earlier work.
The conditions of data set [6]: vs NHE; cited from earlier work.
Data set [7] has as its target T1, glucose oxidase. As to conditions: cited from earlier work.
The target of data set [8] is T1, glucose oxidase. It counts as biochemical. As to conditions: pH 7.

Structures can show the parent of a compound that is named as a salt.

Take 1,1'-dimethylferrocene [1,1'-dimethyl-]: the Eo in data set [1] was determined as 100 mV.
Consider “1,1'-ferrocene dicarboxylic acid [1,1'-dicarboxylic acid]”, for which the “Eo'” value in data set [1] (Example 4, procedure of Example 3, saturated calomel reference) is reported as “+420 mV”. The same compound returned an Eo in data set [1] of 385 mV.
On to 6-methyl-D-glucose, for which the “Relative Rate” value at glucose oxidase [2] was 2.
In turn, `OC[c-]1cccc1.OC[c-]1cccc1.[Fe+2]` [1,1'bis(hydroxymethyl)-] displayed an Eo in data set [1] of 224 mV. The E in data set [3] is 385 cm⁻¹ M⁻¹.
Consider `OC[C@H]1OC(O)C[C@@H](O)[C@@H]1O` (stereo partly drawn) [2-deoxy-D-glucose], for which the “Relative Rate” value at glucose oxidase [2] is on record as 25.
Same read-out and setting: the result for `OC[C@H]1OC(O)[C@@H](O)[C@@H](O)[C@@H]1O` (stereo partly drawn) [D-mannose] reads 1.
Consider `OC1OC[C@@H](O)[C@H](O)[C@H]1O` (stereo partly drawn) [D-xylose], for which, in data set [4] (8 mM glucose), the “interference to the electrodes response to glucose” value (“interference” for short) was “did not cause any observable interference”.
Broadly, the Km is the substrate concentration at which the rate is half of its maximum. Regarding `OC[C@H]1OC(O)[C@H](O)[C@@H](O)[C@@H]1O` (some centres unmarked) [Glucose], the Km is 30 to 40 mM in data set [4] (glucose oxidase immobilized on the prototype ferrocene-based electrodes, kinetically-controlled, read-out: apparent Michaelis-Menten constant KM') and 3 mM on glucose oxidase [5].
Consider `O=C1O[C@H]([C@@H](O)CO)C(O)=C1O` [L-ascorbate], for which the “mean increase in current” value in data set [4] (8 mM glucose, final concentration of 0.13 mM) is reported as “ca. 4.0%”.
With `Cl.N[C@@H](CS)C(=O)O` [L-cysteine HCl], the “interference” value in data set [4] (8 mM glucose) was “did not cause any observable interference”.
In data set [1], `Cl[c-]1cccc1.[Fe+2].c1cc[cH-]c1` [chloro-] displayed an Eo of 345 mV.
As for `[Fe+2].c1cc[cH-]c1.c1cc[cH-]c1` [ferrocene], the Eo in data set [1] is 165 mV. The same compound came in with an E in data set [3] of 335 cm⁻¹ M⁻¹. Also, the redox potential entry in data set [6] is given as “+422 mV”.
Regarding `O=O` [molecular oxygen], the “ks, rate of reaction of the natural electron acceptor with glucose oxidase” value on glucose oxidase [7] is on record as 10^6 M^-1 S^-1.
Consider `N[C@@H](CCC(=O)N[C@@H](CS)C(=O)NCC(=O)O)C(=O)O` [reduced glutathione], for which the “interference” value in data set [4] (8 mM glucose) was “did not cause any observable interference”.
Same read-out and setting: the result for `O=CO` [sodium formate] reads “did not cause any observable interference”.
With `OC[C@H]1O[C@H](O)[C@H](O)[C@@H](O)[C@@H]1O` [α-D-glucose], the “Relative Rate” value at glucose oxidase [2] came out at 0.6.
On to `OC[C@H]1O[C@H](O)[C@H](O)[C@@H](O)[C@H]1O` [α-galactose], for which the “interference” value in data set [4] (8 mM glucose) was “did not cause any observable interference”.
Turning to `OC[C@H]1O[C@H](O)[C@@H](O)[C@@H](O)[C@@H]1O` [α-mannose], in data set [4] (8 mM glucose), the “interference” value is on record as “did not cause any observable interference”.
Consider `OC[C@H]1O[C@@H](O)[C@H](O)[C@@H](O)[C@@H]1O` [β-D-glucose], for which the “Relative Rate” value at glucose oxidase [2] is 100.
As for vinyl ferrocene [vinyl-], in data set [1] (pH 7), the “Eo/mV vs SCE” value is reported as 250 mV. The “Rates of glucose oxidase oxidation” value on glucose oxidase [8] was determined as 18.
